Where two headings read alike, the source gives them in different places.
Columns and labels:
[1] = system: Candida albicans ATCC 10231; experiment: Time required for killing mold, octyl gallate and propyl gallate (FIG. 2); assay type: cell-based; conditions: concomitant use of octyl gallate and propyl gallate, FIG. 2
Source text: FIG. 2 is a graph showing shortening of the time required for killing mold by the concomitant use of octyl gallate and propyl gallate against Candida albicans ATCC 10231.

fungi (mold) = experiment: MIC of octyl gallate against fungi (mold) with trisodium citrate and propyl gallate; assay type: cell-based; conditions: for MIC: 24 h, read-out: Octyl gallate MIC, SDA (+0.9% trisodium citrate), 24 hr, triplicate
herpes virus (HSV-1) = experiment: Virucidal activity against HSV-1 (Tables 14, 15, FIG. 5); assay type: cell-based
clinical isolate MRSA = experiment: Oxacillin MIC against MRSA with concomitant octyl gallate and short-chain alkyl gallate (β-lactam sensitivity, ILSMR effect); assay type: cell-based, Staphylococcus aureus
[2] = clinical isolate MRSA, Isoamyl gallate 6.25
[3] = clinical isolate MRSA, Isoamyl gallate 12.5
[4] = clinical isolate MRSA, Isoamyl gallate 25
[5] = clinical isolate MRSA, Propyl gallate 6.25
[6] = clinical isolate MRSA, Propyl gallate 12.5
[7] = clinical isolate MRSA, Propyl gallate 25
[8] = clinical isolate MRSA, short-chain alkyl gallate None

CCCCCCCCOC(=O)c1cc(O)c(O)c(O)c1 [octyl gallate]
time required for killing mold [1]: shortened to a large extent
MIC (fungi (mold); phosphate buffer (1 mM), propyl gallate 0): 20 µg/mL
MIC (fungi (mold); propyl gallate 300 μg/mL): 10 µg/mL
MIC (fungi (mold); propyl gallate 1000 μg/mL): 10 µg/mL
antimicrobial activity against fungi (mold) (fungi (mold); […]): reinforced
No of plaques (herpes virus (HSV-1); Table 14, octyl gallate 10 mg/L, J1816 30 mg/L, Na3citrate 0.90%): 0
No of plaques (herpes virus (HSV-1); Table 14, octyl gallate 10 mg/L, propyl gallate 300 mg/L, J1816 120 mg/L, Na3citrate 0.90%): 0
No of plaques (herpes virus (HSV-1); Table 14, octyl gallate 20 mg/L, J1816 60 mg/L, Na3citrate 0.90%): 0
No of plaques (herpes virus (HSV-1); Table 14, octyl gallate 20 mg/L, propyl gallate 300 mg/L, J1816 150 mg/L, Na3citrate 0.90%): 0
No of plaques (herpes virus (HSV-1); Table 14, octyl gallate 30 mg/L, J1816 90 mg/L, Na3citrate 0.90%): 0
No of plaques (herpes virus (HSV-1); Table 14, octyl gallate 30 mg/L, propyl gallate 300 mg/L, J1816 180 mg/L, Na3citrate 0.90%): 0
No of plaques (herpes virus (HSV-1); Table 14, octyl gallate 60 mg/L, J1816 180 mg/L, Na3citrate 0.90%): 0
No of plaques (herpes virus (HSV-1); Table 14, octyl gallate 60 mg/L, J1816 180 mg/L, Na3citrate not given): 0
No of plaques (herpes virus (HSV-1); Table 14, octyl gallate 60 mg/L, propyl gallate 300 mg/L, J1816 270 mg/L, Na3citrate 0.90%): 0
No of plaques (herpes virus (HSV-1); Table 14, octyl gallate 100 mg/L, J1816 300 mg/L, Na3citrate 0.90%): 0
No of plaques (herpes virus (HSV-1); Table 14, octyl gallate 100 mg/L, propyl gallate 300 mg/L, J1816 390 mg/L, Na3citrate 0.90%): 0
No of plaques (herpes virus (HSV-1); Table 15, octyl gallate 10 mg/L, J1816 0, NaCitrate 0.90%): 48
No of plaques (herpes virus (HSV-1); Table 15, octyl gallate 10 mg/L, propyl gallate 300 mg/L, J1816 0, NaCitrate 0.90%): 11
No of plaques (herpes virus (HSV-1); Table 15, octyl gallate 20 mg/L, J1816 0, NaCitrate 0.90%): 0
No of plaques (herpes virus (HSV-1); Table 15, octyl gallate 20 mg/L, propyl gallate 300 mg/L, J1816 0, NaCitrate 0.90%): 0
No of plaques (herpes virus (HSV-1); Table 15, octyl gallate 30 mg/L, J1816 0, NaCitrate 0.90%): 0
No of plaques (herpes virus (HSV-1); Table 15, octyl gallate 30 mg/L, propyl gallate 300 mg/L, J1816 0, NaCitrate 0.90%): 0
No of plaques (herpes virus (HSV-1); Table 15, octyl gallate 60 mg/L, J1816 0, NaCitrate 0.90%): 0
No of plaques (herpes virus (HSV-1); Table 15, octyl gallate 60 mg/L, propyl gallate 300 mg/L, J1816 0, NaCitrate 0.90%): 0
No of plaques (herpes virus (HSV-1); Table 15, octyl gallate 100 mg/L, J1816 0, NaCitrate 0.90%): 0
No of plaques (herpes virus (HSV-1); Table 15, octyl gallate 100 mg/L, propyl gallate 300 mg/L, J1816 0, NaCitrate 0.90%): 0
virucidal activity of octyl gallate against HSV-1 (herpes virus (HSV-1); with 60 mg/L of propyl gallate, FIG. 5): marked reinforcement
octyl gallate concentration with growth inhibitory effect in all the bacterial strains with only octyl gallate (clinical isolate MRSA; clinical isolate MRSA): 25 µg/mL
Concentration of octyl gallate for concomitant use necessary for obtaining oxacillin MIC not higher than 2 μg/mL, C50 (clinical isolate MRSA; [2]): >12.5 µg/mL
Concentration of octyl gallate for concomitant use necessary for obtaining oxacillin MIC not higher than 2 μg/mL, C100 (clinical isolate MRSA; [2]): >12.5 µg/mL
Concentration of octyl gallate for concomitant use necessary for obtaining oxacillin MIC not higher than 2 μg/mL, C50 (clinical isolate MRSA; [3]): >12.5 µg/mL
Concentration of octyl gallate for concomitant use necessary for obtaining oxacillin MIC not higher than 2 μg/mL, C100 (clinical isolate MRSA; [3]): >12.5 µg/mL
Concentration of octyl gallate for concomitant use necessary for obtaining oxacillin MIC not higher than 2 μg/mL, C50 (clinical isolate MRSA; [4]): 1.56 µg/mL
Concentration of octyl gallate for concomitant use necessary for obtaining oxacillin MIC not higher than 2 μg/mL, C100 (clinical isolate MRSA; [4]): 1.56 µg/mL
Concentration of octyl gallate for concomitant use necessary for obtaining oxacillin MIC not higher than 2 μg/mL, Range (clinical isolate MRSA; [4]): 1.56 µg/mL
Concentration of octyl gallate for concomitant use necessary for obtaining oxacillin MIC not higher than 2 μg/mL, C50 (clinical isolate MRSA; [5]): >12.5 µg/mL
Concentration of octyl gallate for concomitant use necessary for obtaining oxacillin MIC not higher than 2 μg/mL, C100 (clinical isolate MRSA; [5]): >12.5 µg/mL
Concentration of octyl gallate for concomitant use necessary for obtaining oxacillin MIC not higher than 2 μg/mL, C50 (clinical isolate MRSA; [6]): >12.5 µg/mL
Concentration of octyl gallate for concomitant use necessary for obtaining oxacillin MIC not higher than 2 μg/mL, C100 (clinical isolate MRSA; [6]): >12.5 µg/mL
Concentration of octyl gallate for concomitant use necessary for obtaining oxacillin MIC not higher than 2 μg/mL, Range (clinical isolate MRSA; [6]): 6.25 to 12.5 µg/mL
Concentration of octyl gallate for concomitant use necessary for obtaining oxacillin MIC not higher than 2 μg/mL, C50 (clinical isolate MRSA; [7]): 3.13 µg/mL
Concentration of octyl gallate for concomitant use necessary for obtaining oxacillin MIC not higher than 2 μg/mL, C100 (clinical isolate MRSA; [7]): 6.25 µg/mL
Concentration of octyl gallate for concomitant use necessary for obtaining oxacillin MIC not higher than 2 μg/mL, Range (clinical isolate MRSA; [7]): 1.56 to 6.25 µg/mL
Concentration of octyl gallate for concomitant use necessary for obtaining oxacillin MIC not higher than 2 μg/mL, C50 (clinical isolate MRSA; [8]): 25 µg/mL
Concentration of octyl gallate for concomitant use necessary for obtaining oxacillin MIC not higher than 2 μg/mL, C100 (clinical isolate MRSA; [8]): 25 µg/mL
Concentration of octyl gallate for concomitant use necessary for obtaining oxacillin MIC not higher than 2 μg/mL, Range (clinical isolate MRSA; [8]): 25 µg/mL
octyl gallate concentration at which a decrease of the MIC value of oxacillin to MRSA occurs (clinical isolate MRSA; in the coexistence of propyl gallate or isoamyl gallate): 1.56 µg/mL
Concentration of octyl gallate for concomitant use for oxacillin MIC of 2 μg/mL or lower, 100% of MRSA strains (C100) (clinical isolate MRSA; isoamyl gallate coexisting at 25 μg/mL): 1.56 µg/mL
Concentration of octyl gallate for concomitant use for oxacillin MIC of 2 μg/mL or lower, 100% of MRSA strains (C100) (clinical isolate MRSA; propyl gallate coexisting at 25 μg/mL): 6.25 µg/mL
octyl gallate concentration at which an ILSMR effect was confirmed (clinical isolate MRSA; several bacterial strains, oxacillin with octyl gallate): 12.5 µg/mL
